Key:
[1] = system: ConA-stimulated lymphocytes of diabetic NOD mouse; assay: ConA-stimulated autoimmune lymphocyte proliferation in coculture with differentiated embryonic-like stem cells; assay type: cell-based; conditions: MGTA 10 μM, p<0.01
Description: The specific carboxypeptidase inhibitor, carboxypeptidase inhibitor 2-mercaptomethyl-3-guanidinoethylthiopropanoic acid (MGTA, 10 μM) was applied to block carboxypeptidase. First, embryonic-like stem cells were differentiated by treatment with 10 nM Exendin4+10 ng/ml GM-CSF+25 mM glucose in 7% FBS-DMEM culture medium for 3-5 days. Second, autoimmune lymphocytes were isolated form the diabetic NOD mouse and then cocultured with these embryonic-like stem cells in the presence MGTA. The mouse lymphocyte mitogen concanavalin A (ConA) was used to stimulate the proliferation of lymphocytes.

[2] = system: DNA methyltransferase (DNMT) activity of lymphocytes; assay: DNA methyltransferase activity of lymphocytes regulated by CB-SC-derived NO; assay type: cell-based; conditions: presence of iNOS inhibitor
[3] = system: PHA- or IL-2-stimulated allogeneic lymphocytes; assay: Mitogen-stimulated lymphocyte proliferation in coculture with CB-SC (cell count); assay type: cell-based, human; conditions: 200 μM/day L-NNA for 3 days, p<0.05
Description: (§1) For PHA stimulation, lymphocyte suspensions (1×10^6 cells/ml) with or without PHA (10 μg/ml, Sigma) were seeded onto CB-SC cell cultures in regular culture medium. PHA-stimulated lymphocytes without CB-SC served as positive control; lymphocytes cultured only in regular medium served as negative control. Lymphocytes cocultured with CB-SC without PHA stimulation served as an additional negative control. For IL-2 stimulation, IL-2 (500 U/ml, eBioscience) was used. After 5-6 days, the suspended lymphocytes were collected for cell count and/or flow analysis.
Unfixed CB-SC from same cord blood units served as controls. Additionally, we employed transwell culture system with 0.4 μm size (Sigma) to plant lymphocytes.
In experiments where N^ω-nitro-L-arginine (L-NNA, Sigma) was used to inhibit NO synthase, the drug (200 μM L-NNA) was added 1 h before PHA stimulation and then administrated 200 μM/day for additional two days. [Ziche, M., L. Morbidelli, E. Masini, S. Amerini, H. J. Granger, C. A. Maggi, P. Geppetti, and F. Ledda. 1994. Nitric oxide mediates angiogenesis in vivo and endothelial cell growth and migration in vitro promoted by substance P. J Clin Invest. 94:2036-2044].

[4] = system: human peripheral blood lymphocyte subsets; assay: Coculture of CB-SC with lymphocytes, flow analysis of T cell subsets; assay type: cell-based; conditions: PHA stimulation without CB-SC, p<0.05
Text: CB-SC adhere very tightly to the culture dishes and display large rounded morphology, it is easy to distinguish between CB-SC and lymphocytes. CB-SC growing at 80% confluence were used for coculture with allogeneic lymphocytes. Allogeneic lymphocytes were collected from buffy coats of healthy donors (Life-Source Blood Services, Glenview, Ill.) after Ficoll-Hypaque separation followed by removing all attached cells and then cocultured with CB-SC at the ratio (1:10) [Zhao, Y., H. Wang, and T. Mazzone. 2006. Identification of stem cells from human umbilical cord blood with embryonic and hematopoietic characteristics. Exp Cell Res. 2006, 312: 2454-2464. DOI: 10.1016/j.yexcr.2006.04.008. April 26; (Epub ahead of print)] of CB-SC.
as §1, with “After 5-6 days, the suspended lymphocytes were collected for cell count and/or flow analysis.” left out
Flow analysis was preformed as previously described [Zhao, Y., H. Wang, and T. Mazzone. […] After staining, cells were analyzed using a CyAn ADP (DakoCytomation). […]

[5] = system: intracytoplasmic IL-10 in allogeneic lymphocytes; assay: Flow analysis of intracellular IL-10 production; assay type: cell-based, human; conditions: PHA-stimulated lymphocytes without CB-SC
Description: Allogeneic lymphocytes were cocultured with CB-SC at ratio 1:10 of CB-SC: lymphocytes, in the presence or absence of mitogen PHA. After coculture for 5-6 days, cells were permeabalized and evaluated for intracytoplasmic IL-10 level by flow cytometry. Isotype-matched mouse IgG1κ antibody served as negative control. Data represent one of at least three experiments with the similar results;
as §1
Flow analysis was preformed as previously described [Zhao, Y., H. Wang, and T. Mazzone. 2006. Identification of stem cells from human umbilical cord blood with embryonic and hematopoietic characteristics. Exp Cell Res. 2006, 312: 2454-2464. DOI: 10.1016/j.yexcr.2006.04.008. April 26; (Epub ahead of print)]. […] After staining, cells were analyzed using a CyAn ADP (DakoCytomation).

2-mercaptomethyl-3-guanidinoethylthiopropanoic acid [MGTA]
reversal of stem-cell inhibition of ConA-stimulated lymphocyte proliferation [1]: completely revert their inhibition

CC(=N)NCc1cccc(CN)c1 [1400 W]
blocking of regulation of lymphocyte DNMT activity by CB-SC-derived NO [2]: significantly blocked

NC(=NCCC[C@H](N)C(=O)O)N[N+](=O)[O-] [L-NNA, N-omega-nitro-L-arginine]
lymphocyte cell number in presence vs absence of L-NNA [3]: about 4 fold

phytohaemagglutinin [PHA]
increase of CD8^+ and decrease of CD4^+ T cell percentage vs lymphocytes alone [4]: more than 2 fold | IL-10-positive cells [5]: 80%

Reference: patent publication US9388382B2, “Isolation of CD14 negative, CD45 positive and CD117 positive embryonic-like stem cells free of monocytes from human umbilical cord blood mononuclear cells” (THE BOARD OF TRUSTEES OF THE UNIVERSITY OF ILLINOIS, priority 2005, dated 2016)
